Series [1] has as its system osteolytic lesion in the right iliac bone. The experiment in a line: 18F-FDG PET/CT of a multiple myeloma patient. In kind it is in vivo, human. The note with it: same osteolytic lesion in right iliac bone of MM patient.
The conditions of series [2]: reported for other copper radiopharmaceuticals; cited from earlier work.
The next series deals with CD-1 mice. The experiment in a line: Non-GLP tolerability and toxicity study of Cu-LLP2A V2, single IV bolus. In kind it is in vivo. As to the method:
To evaluate the tolerability and toxicity of Cu-CB-TE1A1P-PEG4-LLP2A V2 (Cu-LLP2A V2) tracer/imaging agent when administered once on Day 1 by intravenous (IV) bolus administration to male and female CD-1 mice, the following experiments were conducted. On Day 2 after administering the tracer/imaging agent, the first 10 animals/sex/group (Main Study) were sacrificed and necropsied. The remaining 5 animals/sex/group (Recovery) were weighed and observed for the remainder of the study and necropsied on Day 15.
Each treatment group (Groups 1-2) was comprised of […] CD-1 mice. Mice were administered either vehicle or 0.0604 mg/mouse Cu-LLP2A V2 (Groups 1 and 2, respectively) once on Day 1 via IV bolus injection at a dose volume of 0.125 mL/mouse. Physical examinations were recorded at the time of randomization. Clinical observations were recorded daily. Body weight measurements were taken for randomization and daily. Blood samples for the evaluation of hematology and clinical chemistry were collected on Day 2 (Main Study) and Day 15 (Recovery). Following blood sample collections, a necropsy was conducted. Protocol-specified tissues were collected and evaluated grossly, select organs were weighed, and tissues were fixed for microscopic evaluation. Tissues were subsequently processed and evaluated microscopically.

The source of these data is US20260077072A1, “METHODS AND COMPOSITIONS FOR IMAGING MALIGNANCIES IN THE BONE MARROW” (Washington University, priority 2022, published 2026).

Consider `OC[C@H]1OC(O)[C@H]([18F])[C@@H](O)[C@@H]1O` (stereo partly drawn) [^18F-FDG, [^18F]fluorodeoxyglucose], for which, in series [1], the “SUL-peak (per PERCIST) in lesion” value amounted to 2.1 and the SUV-max in lesion was 2.9.
Consider `CN=C([S-])N/N=C(C)/C(C)=N/NC([S-])=NC.[64Cu+2]` [^64Cu-ATSM], for which the Effective dose in series [2] is reported as 0.036 mSv/MBq.
Take “Cu-CB-TE1A1P-PEG4-LLP2A V2 [Cu-LLP2A V2]”: in the series on CD-1 mice (0.0604 mg/mouse IV, until scheduled sacrifice (Day 2 or Day 15)), the Survival entry is given as “All animals survived”. Besides, in the series with CD-1 mice (single IV injection of 0.0604 mg/mouse, male and female CD-1 mice), the Tolerability entry was “well tolerated”. For the same compound, the “NOEL (No Observable Effect Level)” value in the series with CD-1 mice (single IV injection, male and female CD-1 mice) is reported as 0.0604 mg/mouse.
